Reference: patent publication US4725578A, “Compounds having therapeutic effect and the preparation thereof” (Tobishi Pharmaceutical Co., Ltd., priority 1986, dated 1988)
“Also recorded” adds a separate entry of the source.

Columns and labels:
B-16 melanoma = assay: B16 melanoma (ip-ip), survival T/C; format: in vivo, mice
Method: (§1) In the Table, the symbol T/C % means Treatment/Control %, that is the increase in life when the control is 100. The values are obtained by implanting tumor cells to groups of mice (or rats), administering the compound being tested in various amounts every 24 hours after the implantation of the tumor cells and then calculating the ratio, the median survival time of the group to which the compound has been administered to the survival of the control, multiplied by a factor of 100. This method is used in the screening of U.S. National Cancer Institute. […]
(§2) In Table 7, the symbol "i.P.-i.P." means that the tumor cells are implanted intraperitoneally and the compounds being tested are also administered intraperitoneally. The symbol "TR" is the therapeutic ratio obtained by dividing the dose which provides a maximum T/C value, by the dose which provides a minimum T/C value.

[1] = Neuropharmacological multidimentional observation (modified Arwin and Smith method); format: in vivo, 4-weeks CD-1 (IRC) mice; conditions: intraperitoneal, 1 to 20 mg/kg, observed every 30 minutes for 180 minutes, compared with patterns of known medicines
Method: In this test, other pharmacological effects which may be obtained by these compounds were investigated.
Each compound of the invention was intraperitoneally administered to 4-weeks CD-1 (IRC) mice (Nippon Charles Liver K.K.) in the dose of 1 to 20 mg/kg with using mice groups consisting of three mice per group. […] The observation was carried out according to the modified Arwin method and Smith method, i.e., neuropharmacological multidimentional observation method.
Making a comparison between the symptom observed and the pattern of the pharmacological action due to the known medicines, it has been discovered that each compound of the invention has the following pharmacological effect.

Colon. 38 = Colon. 38 (sc-ip), inhibition; format: in vivo; conditions: 8 mg/kg × 11, after 17 days
MM2 = MM2 (ip-ip), survival T/C; format: in vivo, mice; conditions: for T/C / mice living more than 60 days (60<): additional tests, MM2 (ip-ip)
Method: as §1, §2
The term in Table 7, last column "3/6 60<", means that 3 mice out of 6 mice continue to live more than 60 days after the implantation of the tumor cells.

Erlich carcinoma = Erlich carcinoma (sc-ip), inhibition; format: in vivo; conditions: 4 mg/kg × 11, after 14 days
Lewis Lung Carcinoma = Lewis Lung Carcinoma (sc-ip), inhibition; format: in vivo; conditions: 8 mg/kg × 11, after 17 days
L-1210 cells = assay: Antineoplastic action against implanted L-1210 cells (ip-ip), survival T/C; format: in vivo, CDFl mice
Method: In this animal test, the antineoplastic action against the implanted tumor was examined in lower animals, in vivo, in respect of the compounds according to the present invention, by using CDFl mice.
To the peritoneal cavity of each group of mice consisting of six CDFl mice per group, 10^6 /0.1 ml of P-388 cells or 10^5 /0.1 ml of L-1210 cells were implanted. […] While to the control groups of CDFl mice, P-388 and L-1210 cells were implanted in the same manner and they were bred without administration of the compounds.
(§3) In the Table, the symbol T/C % means Treatment/Control %, that is the increase in life when the control is 100. The values are obtained by implanting tumor cells to groups of mice (or rats), administering the compound being tested in various amounts every 24 hours after the implantation of the tumor cells and then calculating the ratio, the median survival time of the group to which the compound has been administered to the survival of the control, multiplied by a factor of 100. This method is used in the screening of U.S. National Cancer Institute.
as §2

P-388 cells = assay: Antineoplastic action against implanted P-388 cells (ip-ip), survival T/C; format: in vivo, CDFl mice; conditions: for T/C % (Treatment/Control %): Table 6, P388, intraperitoneal
Method: To the peritoneal cavity of each group of mice consisting of six CDFl mice per group, 10^6 /0.1 ml of P-388 cells or 10^5 /0.1 ml of L-1210 cells were implanted. […]
In the Table, the symbol T/C % means Treatment/Control %, that is the increase in life when the control is 100. […] This method is used in the screening of U.S. National Cancer Institute.
as §2

P 388 [2] = assay: P 388 (ip-iv), survival T/C; format: in vivo, mice
Method: as §3
(§4) In Table 9, "iv" and "sc" means that the administration of the compounds is carried out intravenously and the implantation of the tumor cells is carried out subcutaneously.

[3] = Toxicity test, lethal dose (Litchfield-Wilcoxon); format: in vivo, male 4-weeks CD-1 (ICR) mice; conditions: suspension in 0.5% CMC, 7 days observation
Method: With respect to the compounds of this invention, the lethal dose was determined as follows.
By using male 4-weeks CD-1 (ICR) mice consisting of 5 to 10 mice per group, the desired amount of each compound of this invention was suspended in 0.5% CMC solution and the resultant suspension was administered to each mouse intraperitoneally or intravenously. Observing the life or death as well as the general symptome during 7 days after the administration of the compounds, the value of LD50 for each compounds was estimated from the lethal population observed on the basis of the Litchfield-Wilcoxon method.

P 388 [4] = assay: P 388 (sc-iv), survival T/C; format: in vivo, mice
Method: as §3, §4

COc1ccc(CC2C(=O)NC(C)C(=O)N(C)C3Cc4ccc(cc4)Oc4cc(ccc4OC(C)=O)CC(C(=O)NC(C)C(=O)NC(C)C(=O)N2C)N(C)C3=O)cc1 (stereo not shown) [Ex. 22]
effectiveness against B-16 melanoma (B-16 melanoma; (see Table 7)): effective | B16 (i.P. - i.P.) T/C (%) (B-16 melanoma; Table 7, dose 0.5 mg/kg): 116.9% | B16 (i.P. - i.P.) T/C (%) (B-16 melanoma; Table 7, dose 2 mg/kg): 128.5% | B16 (i.P. - i.P.) T/C (%) (B-16 melanoma; Table 7, dose 4 mg/kg): 147.8% | B16 (i.P. - i.P.) T/C (%) (B-16 melanoma; Table 7, dose 8 mg/kg): 141.1% | Pharmacological effect estinated ([1]; listed as Acetic acid ester of TPC-A): emetic action; also recorded: psychotropic action; also recorded: antidiuretic action | Inhibition (Colon. 38): 51.9% | effectiveness against MM2 (MM2; (see Table 7)): effective | MM2 (i.P. - i.P.) T/C (%) (MM2; Table 7, dose 0.5 mg/kg): 102.5% | MM2 (i.P. - i.P.) T/C (%) (MM2; Table 7, dose 2 mg/kg): 109.2% | MM2 (i.P. - i.P.) T/C (%) (MM2; Table 7, dose 5 mg/kg): 117.8% | MM2 (i.P. - i.P.) T/C (%) (MM2; Table 7, dose 10 mg/kg): 120.9% | Inhibition (Erlich carcinoma): 46.9% | Inhibition (Lewis Lung Carcinoma): 65.4% | L1210 (i.P. - i.P.) T/C (%) (L-1210 cells; Table 7, dose 0.05 mg/kg): 100.9% | L1210 (i.P. - i.P.) T/C (%) (L-1210 cells; Table 7, dose 0.5 mg/kg): 110.0% | L1210 (i.P. - i.P.) T/C (%) (L-1210 cells; Table 7, dose 2 mg/kg): 114.4% | L1210 (i.P. - i.P.) T/C (%) (L-1210 cells; Table 7, dose 5 mg/kg): 120.0% | L1210 (i.P. - i.P.) T/C (%) (L-1210 cells; Table 7, dose 10 mg/kg): 128.9% | T/C % (Treatment/Control %) (P-388 cells; dose 0.05 mg/kg): 133.3% | T/C % (Treatment/Control %) (P-388 cells; dose 0.5 mg/kg): 155.6% | T/C % (Treatment/Control %) (P-388 cells; dose 2 mg/kg): 168.9% | T/C % (Treatment/Control %) (P-388 cells; dose 10 mg/kg): 194.7% | P388 (i.P. - i.P.) T/C (%) (P-388 cells; Table 7, dose 0.05 mg/kg): 133.3% | P388 (i.P. - i.P.) T/C (%) (P-388 cells; Table 7, dose 0.5 mg/kg): 155.6% | P388 (i.P. - i.P.) T/C (%) (P-388 cells; Table 7, dose 2 mg/kg): 168.9% | P388 (i.P. - i.P.) T/C (%) (P-388 cells; Table 7, dose 5 mg/kg): 175.8% | P388 (i.P. - i.P.) T/C (%) (P-388 cells; Table 7, dose 10 mg/kg): 194.7% | T/C (P 388 [2]; 1.11 mg/kg × 9): 112.5% | T/C (P 388 [2]; 5.56 mg/kg × 9): 171.5% | LD50 and 95% Confidence Limit ([3]; intraperitoneal): 18.4(16.9-20.0) mg/kg | LD50 and 95% Confidence Limit ([3]; intravenous): 20.0(15.2-26.3) mg/kg

COc1ccc(C[C@H]2C(=O)N[C@H](C)C(=O)N(C)[C@@H]3Cc4ccc(cc4)Oc4cc(ccc4O)C[C@H](C(=O)N[C@@H](C)C(=O)N[C@@H](C)C(=O)N2C)N(C)C3=O)cc1.COc1ccc(C[C@H]2C(=O)N[C@H](C)C(=O)N(C)[C@@H]3Cc4ccc(cc4)Oc4cc(ccc4O)C[C@H](C(=O)N[C@@H](C)C(=O)N[C@@H](C)C(=O)N2C)N(C)C3=O)cc1.COc1ccc(C[C@H]2C(=O)N[C@H](C)C(=O)N(C)[C@@H]3Cc4ccc(cc4)Oc4cc(ccc4O)C[C@H](C(=O)N[C@@H](C)C(=O)N[C@@H](C)C(=O)N2C)N(C)C3=O)cc1.COc1ccc(C[C@H]2C(=O)N[C@H](C)C(=O)N(C)[C@@H]3Cc4ccc(cc4)Oc4cc(ccc4O)C[C@H](C(=O)N[C@@H](C)C(=O)N[C@@H](C)C(=O)N2C)N(C)C3=O)cc1.O.O.O.O.O [TPC-A]
T/C (P 388 [4]; 5 mg/kg × 7): 179.6% | mice living more than 60 days (60<) (P 388 [4]; 5 mg/kg × 7): 2/7 | T/C (P 388 [4]; 7 mg/kg × 7): 153.7% | mice living more than 60 days (60<) (P 388 [4]; 7 mg/kg × 7): 1/7 | T/C (P 388 [4]; 10 mg/kg × 7): 127.8% | Pharmacological effect estinated [1]: emetic action; also recorded: anorexigenic action; also recorded: psychotropic action; also recorded: vasoconstrictive; also recorded: papaverine action; also recorded: antiper- | T/C (MM2; 2.78 mg/kg × 9): 138.7% | T/C (MM2; 5.56 mg/kg × 9): 231.2% | mice living more than 60 days (60<) (MM2; 5.56 mg/kg × 9): 2/6 | T/C (MM2; 6.94 mg/kg × 9): 184.3% | mice living more than 60 days (60<) (MM2; 6.94 mg/kg × 9): 1/7 | T/C % (Treatment/Control %) (P-388 cells; dose 10 mg/kg): 187.4% | T/C (P 388 [2]; 5.56 mg/kg × 9): 121.4% | LD50 and 95% Confidence Limit ([3]; intravenous): 34.0(28.1-41.2) mg/kg
